Source: patent publication EP2727596A1, “eEF2/eEF2K as therapeutic target for treating TNF-alpha-related diseases” (Fundación Centro Nacional de Investigaciones …, priority 2012, dated 2014)
Entries after “also recorded” stand apart in the source; their conditions may differ.

What was measured:
D-Gal+LPS-treated mice = assay: D-Gal+LPS-induced liver damage (hepatitis) in mice treated with p38 inhibitors; format: in vivo; conditions: WT mice, inhibitor i.p. 15mg/kg prior to LPS injection
Source text: (§1) MKK3 and MKK6 are the main regulators of the α, β, γ and δ p38MAPK isoforms. […] The specific action of these inhibitors on MAPK pathway activity was firstly examined. […] No changes in ERK or JNK phosphorylation were observed.
(§2) Mkk3^-/- (B6.129-Map2k3^tm1Flv), Mkk6^-l- (B6.129-Map2k6^tm1Flv) were as previously described. p38γ (B6.129-Mapk12^tm1) and p38δ (B6.129-Mapk13^tm1) mice were crossed with B6.129P2-Lyz2tm1(cre)Ifo/J and back-crossed for ten generations to the C57BL/6J background (The Jackson Labs) and genotyped by PCR analysis of genomic DNA. Radiation chimeras were generated by exposing recipient mice to two doses of ionizing radiation ([…]) and reconstituting them with 2x10^7 donor bone marrow cells by injection into the tail vein. […] Specificity of the depletion of cell populations was determined by flow cytometry of blood samples collected during the experiment.
Serum activities of alanine transaminase (ALT) and aspartate aminotrasferase (AST) were measured using the ALT and AST Reagent Kit (Biosystems Reagents) with a Benchmark Plus Microplate Spectrophotometer. Serum concentrations of cytokines were measured by multiplexed ELISA with a Luminex 200 analyzer (Millipore). […]

p38α/β = assay: MAPK pathway activity: phosphorylation of p38α substrate HSP27 (immunoblot); format: in vivo; conditions: mice treated prior to LPS injection
Protocol: (§3) MKK3 and MKK6 are the main regulators of the α, β, γ and δ p38MAPK isoforms.
(§4) Tissue extracts were prepared using Triton lysis buffer (20 mM Tris [pH 7.4], 1% Triton X-100, 10% glycerol, 137mM NaCl, 2mM EDTA, 25mM β-glycerophosphate, 1 mM sodium orthovanadate, 1mM phenylmethylsulfonyl fluoride, and 10µg/mL aprotinin and leupeptin). Extracts (30µg protein) and immunoprecipitates (prepared from 2 mg protein) were examined by protein immunoblot analysis with antibodies to ERK1/2, phospho-ERK1/2, phospho-MKK3/6, p38α MAPK, phospho-p38, phospho-hsp27, phospho-JNK1/2, JNK1/2, caspase 3, cleaved caspase 3, cleaved PARP and phospho-eEF2 kinase (Ser366), all from Cell Signaling and MKK3 (Pharmingen), MKK6 (Stressgen), and GAPDH and eEF2 (Santa Cruz Biotechnology). The anti-p38γ and p38δ antibodies were raised against the peptides which correspond to the C termini of the proteins.

ERK = assay: MAPK pathway activity: ERK phosphorylation (immunoblot); format: in vivo; conditions: mice treated prior to LPS injection
Protocol: as §3, §4

JNK = assay: MAPK pathway activity: JNK phosphorylation (immunoblot); format: in vivo; conditions: mice treated prior to LPS injection
Protocol: as §3, §4

TNFα [1] = assay: serum TNFα in D-Gal+LPS-treated mice (inhibitors); format: in vivo
Source text: as §1, §2
(§5) Serum activities of alanine transaminase (ALT) and aspartate aminotrasferase (AST) were measured using the ALT and AST Reagent Kit (Biosystems Reagents) with a Benchmark Plus Microplate Spectrophotometer. Serum concentrations of cytokines were measured by multiplexed ELISA with a Luminex 200 analyzer (Millipore).

IL6 = assay: serum IL6 in D-Gal+LPS-treated mice (inhibitors); format: in vivo
Source text: as §1, §2, §5

[2] = system: association of eEF2 with Tnfα mRNA; assay: RNA-immunoprecipitation assay: eEF2 binding to Tnfα mRNA in RAW 264.7 cells; format: cell-based, Mouse; conditions: RAW 264.7 cells pretreated 10µM for 30 min before LPS (60min)
Protocol: (A-D) BM-derived macrophages from p38γ/δ^Lyz-KO and Lyzs-cre mice were treated with LPS (10µg/ml) or TNFα (20ng/ml). Data were analyzed by two-way ANOVA coupled to Bonferroni post-tests. • (A) ELISA of TNFα and IL-6 in supernatants. • (B) qRT-PCR of Tnfα and Il-6 mRNA normalized to Gapdh, • (C) Immunoblot of BM-derived macrophage (BMM) lysates. • (D) Flow cytometry of phospho-p38 in BM-derived macrophages stimulated with LPS and TNFα for 30 min. Intracellular phospho-p38 is depicted in blue; red corresponds to the isotype control. • (D-I) Cells were treated with LPS. Tnfα mRNA was detected by qRT-PCR in immunoprecipitates (1mg protein) obtained with anti-eEF2. mRNA amounts are expressed relative to the amount detected in control IgG immunoprecipitates. Data were analyzed by Student's t-test unless otherwise indicated. • (E) Tnfα mRNA in RAW 264.7 cell immunoprecipitates. • (F) Tnfα, Hif1α, and Il-6 mRNA in RAW 264.7 cell immunoprecipitates. […] Tnfα mRNA was measured in immunoprecipitates. • (G-H) Tnfα mRNA in immunoprecipitates of BM-derived macrophages from Lyzs-cre and 38γ/δ^Lyz-KO mice (G) or WT or ΔMKK3/6 mice (H) after stimulation (60min). eEF2 in immunoprecipitates was detected by immunoblot (upper panel).
To assess whether eEF2 controls TNFα elongation it was examined the binding of eEF2 to Tnfα mRNA in immunoprecipitates of mRNA-eEF2 complexes in RAW cells. […]

[3] = clinical use; cited from earlier work
TNFα [4] = conditions: healthy males; cited from earlier work
p38δ = biological target: T1, p38δ (Mus musculus, UniProt Q9Z1B7); conditions: mice treated prior to LPS injection
T1 sequence (Q9Z1B7 1-366): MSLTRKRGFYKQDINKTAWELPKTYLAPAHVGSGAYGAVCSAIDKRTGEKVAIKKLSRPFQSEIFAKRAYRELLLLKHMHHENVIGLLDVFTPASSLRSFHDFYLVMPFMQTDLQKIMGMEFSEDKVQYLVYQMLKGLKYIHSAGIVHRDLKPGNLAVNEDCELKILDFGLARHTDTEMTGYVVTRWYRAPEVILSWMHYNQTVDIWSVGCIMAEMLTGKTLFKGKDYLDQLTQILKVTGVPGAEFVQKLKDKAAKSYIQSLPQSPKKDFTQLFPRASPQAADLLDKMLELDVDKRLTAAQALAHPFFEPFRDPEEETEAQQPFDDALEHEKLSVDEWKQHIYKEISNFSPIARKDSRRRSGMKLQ
Protocol: as §3, §4

| SMILES | D-Gal+LPS-induced liver damage (hemorrhage, apoptosis and necrosis) (D-Gal+LPS-treated mice) | inhibition of p38α/β (loss of phosphorylation of p38α substrate HSP27) (p38α/β) | ERK phosphorylation (ERK) | JNK phosphorylation (JNK) | serum levels of TNFα (TNFα [1]) | serum levels of IL6 (IL6) | association of eEF2 with Tnfα mRNA [2] | liver enzyme elevations [3] | inhibition of ex-vivo LPS-induced TNFα (TNFα [4]) | inhibition of p38δ activation (suppression of phosphorylation of its substrate eEF2K) (p38δ) |
| --- | --- | --- | --- | --- | --- | --- | --- | --- | --- | --- |
| Cc1ccc(-n2nc(C(C)(C)C)cc2NC(=O)Nc2ccc(OCCN3CCOCC3)c3ccccc23)cc1 [BIRB796] | improves liver condition; also recorded: protected | efficiently inhibited | No changes | No changes | reduced | reduced | abolished | some liver enzyme elevations | – | – |
| Cn1c(NC[C@@H](N)Cc2ccccc2)nc(-c2ccncc2)c(-c2ccc3ccccc3c2)c1=O [AMG 548] | – | – | – | – | – | – | – | random liver enzyme elevations | > 85% | – |
| C[S+]([O-])c1ccc(-c2nc(-c3ccncc3)c(-c3ccc(F)cc3)[nH]2)cc1 (stereo not drawn) [SB203580] | intensifies; also recorded: exacerbated | efficiently inhibited | No changes | No changes | – | – | – | – | – | only BIRB796 was able to inhibit |
